According to patent publication US20240116985A1, “STAPLED PEPTIDES AND METHODS THEREOF” (priority 2020, published 2024):
pIC50: −log10 of the molar value. ≈ marks a conversion by molar mass, not a printed value. Read-outs that look alike come from different tables or passages of the source. Starred links: 1 amine or outer side, 2 acyl side, 3 side chain; linkers in the order of their positions; H or OH if unused. Non-standard residues stand in square brackets, D forms with d. Residues, ends and D or L forms follow the SMILES beside them. X1 = C=CCOC(=O)N1CC[C@@](N[*:1])(C(=O)[*:2])C1; R8 = C=CCCCCCC[C@@](C)(N)C(=O)O

Experiments:
[1] = CHI Log D procedure; type: physicochemical; settings: for CHI Log D: pH 7.4; for chromatographic logD: pH 7.4, CHI Log D
[2] = Solubility in PBS; type: physicochemical
How it was run: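 The PBS solution was ultracentrifuged and the supernatant analyzed by HPLC. Its peak area was divided by that of a 50 μM peptide DMSO reference injection and multiplied by 50 uM to give solubility.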

[3] = target: T1, full-length beta-Catenin (Uniprot ID P35222) (Homo sapiens, UniProt P35222); assay: Fluorescence polarization IC50 (beta-catenin / 5FAM-TCF4 10-53 competition); type: binding; settings: fluorescence polarization; read-out: beta-Catenin FP IC50
T1 construct: 10 nM full-length beta-Catenin (Uniprot ID P35222)
T1 sequence (P35222 1-781): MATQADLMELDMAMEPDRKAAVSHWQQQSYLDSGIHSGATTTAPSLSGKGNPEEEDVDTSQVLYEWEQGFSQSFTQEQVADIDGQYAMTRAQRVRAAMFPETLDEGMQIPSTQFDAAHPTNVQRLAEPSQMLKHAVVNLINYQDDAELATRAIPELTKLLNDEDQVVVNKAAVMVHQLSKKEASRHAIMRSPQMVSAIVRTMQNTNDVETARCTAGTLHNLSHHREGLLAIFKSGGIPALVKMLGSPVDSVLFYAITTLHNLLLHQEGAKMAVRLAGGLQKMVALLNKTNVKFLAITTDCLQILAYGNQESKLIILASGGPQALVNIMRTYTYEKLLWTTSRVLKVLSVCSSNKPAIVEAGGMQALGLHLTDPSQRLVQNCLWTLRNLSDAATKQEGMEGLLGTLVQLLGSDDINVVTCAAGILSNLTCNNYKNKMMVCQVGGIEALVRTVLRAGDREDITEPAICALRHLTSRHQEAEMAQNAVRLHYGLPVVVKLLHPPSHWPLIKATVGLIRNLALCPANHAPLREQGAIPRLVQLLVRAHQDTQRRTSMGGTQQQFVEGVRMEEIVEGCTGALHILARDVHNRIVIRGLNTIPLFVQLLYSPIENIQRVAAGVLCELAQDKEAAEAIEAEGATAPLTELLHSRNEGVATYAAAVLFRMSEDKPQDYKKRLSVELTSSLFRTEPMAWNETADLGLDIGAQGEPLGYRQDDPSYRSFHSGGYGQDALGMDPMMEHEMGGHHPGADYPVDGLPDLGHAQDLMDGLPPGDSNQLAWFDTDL

[4] = target: T2, beta-catenin/TCF4 engagement (Homo sapiens, UniProt P35222); assay: Nano-BRET target engagement assay (B-cat-Halo & TCF4-Luc in HEK293 cells); type: cell-based; settings: absolute IC50; read-out: NanoBRET Abs IC50
T2 construct: expressed in transfected cells; host or cells: HEK293
T2 sequence (P35222 1-781): T1 sequence (P35222 1-781)

| SMILES | CHI Log D [1] | Solubility [2] [µM] | chromatographic logD [1] | solubility at 15 min ([2]; Solubility (uM)) [µM] | pIC50 [3] | Solubility ([2]; Solubility (uM)) [µM] | pIC50 [4] |
| --- | --- | --- | --- | --- | --- | --- | --- |
| CC(=O)N1CCC[C@]12CC=CCCCC1(CCCC=CCCCCCC[C@@](C)(C(=O)N[C@@H](Cc3cn(C)cn3)C(=O)N[C@@H](Cc3csc4ccccc34)C(=O)N[C@@H](CCC(N)=O)C(N)=O)NC(=O)[C@H](CC(N)=O)NC(=O)[C@H](Cc3ccccc3)NC(=O)[C@H](C)NC(=O)[C@H](C)NC(=O)[C@H](CCC(=O)O)NC(=O)[C@H](CC(=O)O)NC1=O)NC(=O)[C@H](C)NC(=O)[C@H](CC(=O)O)NC2=O (stereo partly drawn) [I-439, Ac-PL3-Asp-Ala-B5-Asp-Glu-Ala-Ala-Phe-Asn-S8-1meH-BztA-Gln-NH2] | 1.408 | 50 (≈ 91.6 µg/mL) |  |  |  |  |  |
| CC(=O)N[C@@H](Cc1ccccc1)C(=O)N[C@@H](CC(=O)O)C(=O)N[C@@H](C)C(=O)N[C@]1(C)CCCCCCC=CCOC(=O)N2CC[C@@](C(=O)N[C@@H](Cc3ccccc3)C(=O)N[C@@H](Cc3c[nH]c4ccccc34)C(=O)N[C@@H](CCC(N)=O)C(N)=O)(C2)NC(=O)[C@H](C(C)C)NC(=O)[C@H](Cc2ccccc2)NC(=O)[C@H](C)NC(=O)[C@H](C)NC(=O)[C@H](Cc2ccc3ccccc3c2)NC(=O)[C@H](CC(=O)O)NC1=O [I-116, Ac-Phe-Asp-Ala-R8-Asp-2NapA-Ala-Ala-Phe-Val-PyrS-Phe-Trp-Gln-NH2] | 2.134 | 11 (≈ 20.9 µg/mL) |  |  |  |  |  |
| CC(=O)N1CCC[C@]12CC=CCCCC1(CCCC=CCCCCCC[C@@](C)(C(=O)N[C@@H](Cc3ccccc3)C(=O)N[C@@H](Cc3c[nH]c4ccccc34)C(=O)N[C@@H](CCC(N)=O)C(N)=O)NC(=O)[C@H](C(C)C)NC(=O)[C@H](Cc3ccccc3)NC(=O)[C@H](C)NC(=O)[C@H](C)NC(=O)[C@H](Cc3cccc(F)c3)NC(=O)[C@H](CC(=O)O)NC1=O)NC(=O)[C@H](C)NC(=O)[C@H](CC(=O)O)NC2=O (stereo partly drawn) [I-257, Ac-PL3-Asp-Ala-B5-Asp-3FF-Ala-Ala-Phe-Val-S8-Phe-Trp-Gln-NH2] |  | 10 (≈ 18.3 µg/mL) | 2.91 |  |  |  |  |
| CC[C@H](C)[C@@H]1NC(=O)[C@H](CC(=O)O)NC(=O)[C@]2(CC=CCCCC3(CCCC=CCCCCCC[C@@](C)(C(=O)N[C@@H](Cc4ccccc4)C(=O)N[C@@H](Cc4csc5ccccc45)C(=O)N4CCC[C@H]4C(N)=O)NC(=O)[C@H](CCC(N)=O)NC(=O)[C@H](Cc4ccccc4)NC(=O)[C@H](C)NC(=O)[C@H](C)NC(=O)[C@H](CCC(=O)O)NC(=O)[C@H](CC(=O)O)NC3=O)NC1=O)CCCN2C(C)=O (stereo partly drawn) [I-637, Ac-PL3-Asp-Ile-B5-Asp-Glu-Ala-Ala-Phe-Gln-S8-Phe-BztA-Pro-NH2] | 2.554 | 50 (≈ 92.6 µg/mL) |  |  |  |  |  |
| C=CCCCCCC[C@@](C)(NC(=O)[C@H](C)NC(=O)[C@H](CC(=O)O)NC(=O)[C@H](Cc1ccccc1)NC(C)=O)C(=O)N[C@@H](CC(=O)O)C(=O)N[C@@H](CC(=O)O)C(=O)N[C@@H](C)C(=O)N[C@@H](C)C(=O)N[C@@H](Cc1ccccc1)C(=O)N[C@@H](CCC(N)=O)C(=O)N[C@@]1(C(=O)N[C@@H](Cc2ccccc2)C(=O)N[C@@H](Cc2c[nH]c3ccccc23)C(=O)N[C@@H](CCC(N)=O)C(N)=O)CCN(C(=O)OCC=C)C1 [I-579, Ac-Phe-Asp-Ala-R8-Asp-Asp-Ala-Ala-Phe-Gln-PyrS-Phe-Trp-Gln-NH2] (Ac-FDA[R8]DDAAFQ[X1]FWQ-NH2) |  |  | 1.51 | 45 (≈ 84.6 µg/mL) |  |  |  |
| CC(=O)N1CCC[C@]12CC=CCCCC1(CCCC=CCCCOC(=O)N3CC[C@@](C(=O)N[C@@H](Cc4ccccc4Cl)C(=O)N[C@@H](Cc4csc5ccccc45)C(=O)N[C@@H](CCC(N)=O)C(N)=O)(C3)NC(=O)[C@H](CCCCNC(C)C)NC(=O)[C@H](Cc3ccccc3)NC(=O)[C@H](C)NC(=O)[C@H](C)NC(=O)[C@H](CC(=O)O)NC(=O)[C@H](CC(=O)O)NC1=O)NC(=O)[C@H](CC(C)(C)C)NC(=O)[C@H](CC(=O)O)NC2=O (stereo partly drawn) [I-1278, Ac-PL3-Asp-Npg-B5-Asp-Asp-Ala-Ala-Phe-iPrLys-PyrS2-2C1F-BztA-Gln-NH2] |  |  |  |  | 8.00 | 25 (≈ 50.1 µg/mL) | 4.74 |
| CC(=O)N1CCC[C@]12CC=CCCCC1(CCCC=CCCCOC(=O)N3CC[C@@](C(=O)N[C@@H](Cc4ccsc4)C(=O)N[C@@H](Cc4csc5ccccc45)C(=O)N[C@@H](CCC(N)=O)C(N)=O)(C3)NC(=O)[C@H](CC(C)C)NC(=O)[C@H](Cc3cccc(C#N)c3)NC(=O)[C@H](C)NC(=O)[C@H](C)NC(=O)[C@H](CC(=O)O)NC(=O)[C@H](CC(=O)O)NC1=O)NC(=O)[C@H](CC(C)(C)C)NC(=O)[C@H](CC(=O)O)NC2=O (stereo partly drawn) [I-1201, Ac-PL3-Asp-Npg-B5-Asp-Asp-Ala-Ala-3CNF-Leu-PyrS2-3Thi-BztA-Gln-NH2] |  |  |  |  | 7.89 | 47 (≈ 91.3 µg/mL) | 4.71 |
| CC(=O)N1CCC[C@]12CC=CCCCC1(CCCC=CCCCOC(=O)N3CC[C@@](C(=O)N[C@@H](Cc4ccccc4Cl)C(=O)N[C@@H](Cc4csc5ccccc45)C(=O)N[C@@H](CCC(N)=O)C(N)=O)(C3)NC(=O)[C@H](Cc3ccccc3)NC(=O)[C@H](Cc3ccccc3)NC(=O)[C@H](C)NC(=O)[C@H](C)NC(=O)[C@H](CC(=O)O)NC(=O)[C@H](CC(=O)O)NC1=O)NC(=O)[C@H](CC(C)(C)C)NC(=O)[C@H](CC(=O)O)NC2=O (stereo partly drawn) [I-1366, Ac-PL3-Asp-Npg-B5-Asp-Asp-Ala-Ala-Phe-Phe-PyrS2-2C1F-BztA-Gln-NH2] |  | 10 (≈ 19.8 µg/mL) |  |  | 8.15 |  | 5.12 |
| CC(=O)N1CCC[C@]12CC=CCCCC1(CCCC=CCCCOC(=O)N3CC[C@@](C(=O)N[C@@H](Cc4ccccc4Cl)C(=O)N[C@@H](Cc4csc5ccccc45)C(=O)N[C@H](C(N)=O)[C@@H](C)O)(C3)NC(=O)[C@H](CO)NC(=O)[C@H](Cc3ccccc3)NC(=O)[C@H](C)NC(=O)[C@H](C)NC(=O)[C@H](CC(=O)O)NC(=O)[C@H](CC(=O)O)NC1=O)NC(=O)[C@H](Cc1ccccc1)NC(=O)[C@H](CC(=O)O)NC2=O (stereo partly drawn) [I-1141, Ac-PL3-Asp-Phe-B5-Asp-Asp-Ala-Ala-Phe-Ser-PyrS2-2C1F-BztA-Thr-NH2] |  |  |  |  | 7.89 | 44 (≈ 84.2 µg/mL) | 4.56 |
| CC(=O)N1CCC[C@]12CC=CCCCC1(CCCC=CCCCOC(=O)N3CC[C@@](C(=O)N[C@@H](Cc4c(F)c(F)c(F)c(F)c4F)C(=O)N[C@@H](Cc4csc5ccccc45)C(=O)N[C@@H](CCC(N)=O)C(N)=O)(C3)NC(=O)[C@H](CC(C)C)NC(=O)[C@H](Cc3ccccc3)NC(=O)[C@H](C)NC(=O)[C@H](C)NC(=O)[C@H](CC(=O)O)NC(=O)[C@H](CC(=O)O)NC1=O)NC(=O)[C@H](CC(C)(C)C)NC(=O)[C@H](CC(=O)O)NC2=O (stereo partly drawn) [I-1185, Ac-PL3-Asp-Npg-B5-Asp-Asp-Ala-Ala-Phe-Leu-PyrS2-Pff-BztA-Gln-NH2] |  |  |  |  | 6.69 | 33 (≈ 66 µg/mL) | 4.57 |
| CC(=O)N1CCC[C@]12CC=CCCCC1(CCCC=CCCCOC(=O)N3CC[C@@](C(=O)N[C@@H](Cc4ccccc4Cl)C(=O)N[C@@H](Cc4csc5ccccc45)C(=O)N[C@@H](CCC(N)=O)C(N)=O)(C3)NC(=O)[C@H](CO)NC(=O)[C@H](Cc3ccccc3)NC(=O)[C@H](C)NC(=O)[C@H](CC(C)C)NC(=O)[C@H](CC(=O)O)NC(=O)[C@H](CC(=O)O)NC1=O)NC(=O)[C@H](CC1CCCCC1)NC(=O)[C@H](CC(=O)O)NC2=O (stereo partly drawn) [I-1147, Ac-PL3-Asp-Cha-B5-Asp-Asp-Leu-Ala-Phe-Ser-PyrS2-2C1F-BztA-Gln-NH2] |  |  |  |  | 8.00 | 23 (≈ 45.7 µg/mL) | 4.68 |
| CC(=O)N1CCC[C@]12CC=CCCCC1(CCCC=CCCCOC(=O)N3CC[C@@](C(=O)N[C@@H](Cc4ccccc4Cl)C(=O)N[C@@H](Cc4csc5ccccc45)C(=O)N[C@@H](CO)C(N)=O)(C3)NC(=O)[C@H]([C@@H](C)O)NC(=O)[C@H](Cc3ccccc3)NC(=O)[C@H](CC(C)C)NC(=O)[C@H](C)NC(=O)[C@H](CC(=O)O)NC(=O)[C@H](CC(=O)O)NC1=O)NC(=O)[C@H](Cc1ccccc1)NC(=O)[C@H](CC(=O)O)NC2=O (stereo partly drawn) [I-1157, Ac-PL3-Asp-Phe-B5-Asp-Asp-Ala-Leu-Phe-Thr-PyrS2-2C1F-BztA-Ser-NH2] |  |  |  |  | 7.44 | 15 (≈ 29.3 µg/mL) | < 4.70 |
| CC(=O)N1CCC[C@]12CC=CCCCC1(CCCC=CCCCOC(=O)N3CC[C@@](C(=O)N[C@@H](Cc4ccsc4)C(=O)N[C@@H](Cc4csc5ccccc45)C(=O)N[C@@H](CCC(N)=O)C(N)=O)(C3)NC(=O)[C@H]([C@@H](C)O)NC(=O)[C@H](Cc3ccccc3)NC(=O)[C@H](C)NC(=O)[C@H](C)NC(=O)[C@H]([C@@H](C)O)NC(=O)[C@H](CC(=O)O)NC1=O)NC(=O)[C@H](CC1CCCCC1)NC(=O)[C@H](CC(=O)O)NC2=O (stereo partly drawn) [I-1173, Ac-PL3-Asp-Cha-B5-Asp-Thr-Ala-Ala-Phe-Thr-PyrS2-3Thi-BztA-Gln-NH2] |  | 10 (≈ 19.2 µg/mL) |  |  | 7.92 |  | 4.76 |
